Patent US20220132846A1, “1-PYRIDYL-PYRAZOLYL AMIDE COMPOUNDS AND PREPARATION AND USES THEREOF” (HUNAN RESEARCH INSTITUTE OF CHEMICAL INDUSTRY CO., LTD., priority 2019, published 2022)

Columns and labels:
[1] = tested on: Armyworm (Mythimna separata (Walker)); test: Test against armyworm, Potter tower method; format: in vivo; details: for mortality at 50 µg/mL / mortality at 500 µg/mL / mortality at 12.5 µg/mL: Mythimna separata, third-instar larvae, after 72 hours, read-out: Activity (mortality) level against armyworm; for mortality at 50 µg/mL: 50 mg/L; for mortality at 500 µg/mL: 500 mg/L; for mortality at 12.5 µg/mL: 12.5 mg/L
Description: Potter tower method: the test compound was dissolved in an appropriate solvent such as N,N-dimethylformamide, and then diluted with 0.2% aqueous solution of Tween 80 to the desired concentration, Those without the test compounds were set as blank controls. The fresh and tender corn leaves were taken and cut into fragments of basically the same size, then put into a Petri dish (diameter 90 mm) padded with filter paper in advance. Ten third-instar larvae of test insects were transferred into the dish and then placed under the Potter spray tower for being sprayed, each concentration treatment was sprayed at the amount of 1 mL and replicated 3 times. The dish was covered and then placed in a chamber for culture and observed regularly, after 72 hours, the dead insects was investigated and recorded and the mean mortality was calculated. […]

[2] = tested on: Aphis fabae; test: Test against aphid, leaf dip method (Aphis fabae); format: in vivo; details: foliar; for mortality at 200 µg/mL: 200 mg/L; for mortality at 200 µg/mL / mortality at 500 µg/mL / mortality at 12.5 µg/mL / mortality at 50 µg/mL: after 24 hours, read-out: Activity (mortality) level against Aphis fabae; for mortality at 500 µg/mL: 500 mg/L; for mortality at 12.5 µg/mL: 12.5 mg/L; for mortality at 50 µg/mL: 50 mg/L; for LC50: further test, read-out: LC50 against Aphis fabae
Description: For evaluating the activity of the compounds of this invention against Homoptera pests, Aphis fabae, wheat aphids, etc. were selected as the test insects, and the activity of the compounds of this invention against aphids was measured by leaf dip method indoors.
Leaf dip method (Aphis fabae): the test compound was dissolved in an appropriate solvent such as N,N-dimethylformamide, and then diluted with 0.2% aqueous solution of Tween 80 to the desired concentration, Those without the test compounds were set as blank controls, the treatments were replicated 3 times. Horsebean seedlings with no less than twenty 3-day-old Aphis fabae per plant was cut from the stem, 5 horsebean seedlings with the insects were dipped in the test solution for 5 seconds, then inserted into a sponge filled with water after sucked dry using filter paper, then covered with a glass tube and placed in a chamber for culture. After 24 hours, the number of living and dead insects were investigated and the results were averaged. […]

| SMILES | mortality at 50 µg/mL [1] | mortality at 500 µg/mL [1] | mortality at 200 µg/mL [2] | mortality at 500 µg/mL [2] | mortality at 12.5 µg/mL [1] | mortality at 12.5 µg/mL [2] | mortality at 50 µg/mL [2] | LC50 [2] | Activity against armyworm, further screening (in words) ([1]; compared with chlorantraniliprole (D1)) |
| --- | --- | --- | --- | --- | --- | --- | --- | --- | --- |
| CCN(CC)C(=S)c1cc(Cl)cc(Cl)c1N(C)C(=S)c1cc(Br)nn1-c1ncccc1Cl [Compound 24, N-[2,4-dichloro-6-[(diethylamino)thioxomethyl]phenyl]-N-methyl-1-(3-chloro-2-pyridinyl)-3-bromo-1H-pyrazole-5-carbothioamide] | 90 to 100% | 90 to 100% | 90 to 100% | 90 to 100% |  |  |  |  |  |
| CNC(=O)c1cc(Cl)cc(Br)c1N(C)C(=O)c1cc(Br)nn1-c1ncccc1Cl [Compound 25, N-[2-bromo-4-chloro-6-[(methylamino)carbonyl]phenyl]-N-methyl-1-(3-chloro-2-pyridinyl)-3-bromo-1H-pyrazole-5-carboxamide] | 90 to 100% | 90 to 100% | 90 to 100% | 90 to 100% | 90 to 100% | 90 to 100% | 90 to 100% |  |  |
| CCNC(=O)c1cc(Cl)cc(Br)c1N(C)C(=O)c1cc(Br)nn1-c1ncccc1Cl [Compound 26, N-[2-bromo-4-chloro-6-[(ethylamino)carbonyl]phenyl]-N-methyl-1-(3-chloro-2-pyridinyl)-3-bromo-1H-pyrazole-5-carboxamide] | 90 to 100% | 90 to 100% | 90 to 100% | 90 to 100% | 90 to 100% | 90 to 100% | 90 to 100% |  |  |
| CCCNC(=O)c1cc(Cl)cc(Br)c1N(C)C(=O)c1cc(Br)nn1-c1ncccc1Cl [Compound 27, N-[2-bromo-4-chloro-6-[(propylamino)carbonyl]phenyl]-N-methyl-1-(3-chloro-2-pyridinyl)-3-bromo-1H-pyrazole-5-carboxamide] | 90 to 100% | 90 to 100% | 90 to 100% | 90 to 100% |  | 90 to 100% | 90 to 100% |  |  |
| CC(C)NC(=O)c1cc(Cl)cc(Br)c1N(C)C(=O)c1ccnn1-c1ncccc1Cl [Compound 28, N-[2-bromo-4-chloro-6-[(isopropylamino)carbonyl]phenyl]-N-methyl-1-(3-chloro-2-pyridinyl)-1H-pyrazole-5-carboxamide] | 90 to 100% | 90 to 100% | 90 to 100% | 90 to 100% | 90 to 100% |  |  |  |  |
| CN(C(=O)c1cc(Br)nn1-c1ncccc1Cl)c1c(Br)cc(Cl)cc1C(=O)NC1CC1 [Compound 29, N-[2-bromo-4-chloro-6-[(cyclopropylamino)carbonyl]phenyl]-N-methyl-1-(3-chloro-2-pyridinyl)-3-bromo-1H-pyrazole-5-carboxamide] | 90 to 100% | 90 to 100% | 90 to 100% | 90 to 100% | 90 to 100% |  |  |  |  |
| CCCCNC(=O)c1cc(Cl)cc(Br)c1N(C)C(=O)c1ccnn1-c1ncccc1Cl [Compound 30, N-[2-bromo-4-chloro-6-[(butylamino)carbonyl]phenyl]-N-methyl-1-(3-chloro-2-pyridinyl)-1H-pyrazole-5-carboxamide] |  | 90 to 100% | 90 to 100% | 90 to 100% |  |  |  |  |  |
| CN(C)C(=O)c1cc(Cl)cc(Br)c1N(C)C(=O)c1cc(Br)nn1-c1ncccc1Cl [Compound 31, N-[2-bromo-4-chloro-6-[(dimethylamino)carbonyl]phenyl]-N-methyl-1-(3-chloro-2-pyridinyl)-3-bromo-1H-pyrazole-5-carboxamide] |  | 90 to 100% | 90 to 100% | 90 to 100% |  | 90 to 100% | 90 to 100% | < 1 µg/mL |  |
| CCCN(C)C(=O)c1cc(Cl)cc(Br)c1N(C)C(=O)c1cc(Br)nn1-c1ncccc1Cl [Compound 33, N-[2-bromo-4-chloro-6-[(methyl(propyl)amino)carbonyl]phenyl]-N-methyl-1-(3-chloro-2-pyridinyl)-3-bromo-1H-pyrazole-5-carboxamide] | 90 to 100% | 90 to 100% | 90 to 100% | 90 to 100% |  | 90 to 100% | 90 to 100% |  |  |
| CC(C)N(C)C(=O)c1cc(Cl)cc(Br)c1N(C)C(=O)c1cc(Br)nn1-c1ncccc1Cl [Compound 34, N-[2-bromo-4-chloro-6-[(methyl(isopropyl)amino)carbonyl]phenyl]-N-methyl-1-(3-chloro-2-pyridinyl)-3-bromo-1H-pyrazole-5-carboxamide] | 90 to 100% | 90 to 100% | 90 to 100% | 90 to 100% |  | 90 to 100% | 90 to 100% | < 1 µg/mL |  |
| CN(C(=O)c1cc(Br)nn1-c1ncccc1Cl)c1c(Br)cc(Cl)cc1C(=O)N(C)C1CC1 [Compound 35, N-[2-bromo-4-chloro-6-[(methyl(cyclopropyl)amino)carbonyl]phenyl]-N-methyl-1-(3-chloro-2-pyridinyl)-3-bromo-1H-pyrazole-5-carboxamide] | 90 to 100% | 90 to 100% | 90 to 100% | 90 to 100% |  | 90 to 100% | 90 to 100% |  |  |
| CN(C(=O)c1cc(Br)nn1-c1ncccc1Cl)c1c(Br)cc(Cl)cc1C(=O)N(C)C(C)(C)C [Compound 36, N-[2-bromo-4-chloro-6-[(methyl(tert-butyl)amino)carbonyl]phenyl]-N-methyl-1-(3-chloro-2-pyridinyl)-3-bromo-1H-pyrazole-5-carboxamide] | 90 to 100% | 90 to 100% | 90 to 100% | 90 to 100% |  |  | 90 to 100% |  |  |
| CCN(CC)C(=O)c1cc(Cl)cc(Br)c1N(C)C(=O)c1cc(Br)nn1-c1ncccc1Cl [Compound 37, N-[2-bromo-4-chloro-6-[(diethylamino)carbonyl]phenyl]-N-methyl-1-(3-chloro-2-pyridinyl)-3-bromo-1H-pyrazole-5-carboxamide] | 90 to 100% | 90 to 100% | 90 to 100% | 90 to 100% | 90 to 100% | 90 to 100% | 90 to 100% |  |  |
| CCN(C(=O)c1cc(Br)nn1-c1ncccc1Cl)c1c(Br)cc(Cl)cc1C(=O)N(C)C [Compound 38, N-[2-bromo-4-chloro-6-[(dimethylamino)carbonyl]phenyl]-N-ethyl-1-(3-chloro-2-pyridinyl)-3-bromo-1H-pyrazole-5-carboxamide] | 90 to 100% | 90 to 100% | 90 to 100% | 90 to 100% |  | 90 to 100% | 90 to 100% |  |  |
| CCN(C)C(=O)c1cc(Cl)cc(Br)c1N(CC)C(=O)c1cc(Br)nn1-c1ncccc1Cl [Compound 39, N-[2-bromo-4-chloro-6-[(methyl(ethyl)amino)carbonyl]phenyl]-N-ethyl-1-(3-chloro-2-pyridinyl)-3-bromo-1H-pyrazole-5-carboxamide] | 90 to 100% | 90 to 100% | 90 to 100% | 90 to 100% |  | 90 to 100% | 90 to 100% |  |  |
| CCN(CC)C(=O)c1cc(Cl)cc(Br)c1N(CC)C(=O)c1cc(Br)nn1-c1ncccc1Cl [Compound 40, N-[2-bromo-4-chloro-6-[(diethylamino)carbonyl]phenyl]-N-ethyl-1-(3-chloro-2-pyridinyl)-3-bromo-1H-pyrazole-5-carboxamide] | 90 to 100% | 90 to 100% | 90 to 100% | 90 to 100% | 90 to 100% | 90 to 100% | 90 to 100% |  | excellent activity |
| CCCN(C(=O)c1cc(Br)nn1-c1ncccc1Cl)c1c(Br)cc(Cl)cc1C(=O)N(C)C [Compound 41, N-[2-bromo-4-chloro-6-[(dimethylamino)carbonyl]phenyl]-N-propyl-1-(3-chloro-2-pyridinyl)-3-bromo-1H-pyrazole-5-carboxamide] | 90 to 100% | 90 to 100% | 90 to 100% | 90 to 100% |  | 90 to 100% | 90 to 100% |  |  |
| CNC(=O)c1cc(Cl)cc(C)c1N(C)C(=O)c1cc(Br)nn1-c1ncccc1Cl [Compound 42, N-[2-methyl-4-chloro-6-[(methylamino)carbonyl]phenyl]-N-methyl-1-(3-chloro-2-pyridinyl)-3-bromo-1H-pyrazole-5-carboxamide] | 90 to 100% | 90 to 100% | 90 to 100% | 90 to 100% | 90 to 100% | 90 to 100% | 90 to 100% |  |  |
